Source: ChEMBL document CHEMBL1135345, “Design and characterization of non-phosphopeptide inhibitors for Src family SH2 domains” (Bioorg Med Chem Lett, 2002)
Where a SMILES comes first, the peptide text is derived from it. [ ]: non-standard residue; d: D form. The star is where a group is joined. pY = N[C@@H](Cc1ccc(OP(=O)(O)O)cc1)C(=O)O; Dopa = N[C@@H](Cc1ccc(O)c(O)c1)C(=O)O; Caffeoyl = O=C(/C=C/c1ccc(O)c(O)c1)*; X1 = O=C(Cc1cc(=O)oc2cc(O)ccc12)*

How the values were obtained:
[1] = molecular target: Proto-oncogene tyrosine-protein kinase Src (Homo sapiens, UniProt P12931); assay: Affinity for GST- Src-SH2 domain in ELISA
Chain of Proto-oncogene tyrosine-protein kinase Src (P12931 2-536 limits assumed): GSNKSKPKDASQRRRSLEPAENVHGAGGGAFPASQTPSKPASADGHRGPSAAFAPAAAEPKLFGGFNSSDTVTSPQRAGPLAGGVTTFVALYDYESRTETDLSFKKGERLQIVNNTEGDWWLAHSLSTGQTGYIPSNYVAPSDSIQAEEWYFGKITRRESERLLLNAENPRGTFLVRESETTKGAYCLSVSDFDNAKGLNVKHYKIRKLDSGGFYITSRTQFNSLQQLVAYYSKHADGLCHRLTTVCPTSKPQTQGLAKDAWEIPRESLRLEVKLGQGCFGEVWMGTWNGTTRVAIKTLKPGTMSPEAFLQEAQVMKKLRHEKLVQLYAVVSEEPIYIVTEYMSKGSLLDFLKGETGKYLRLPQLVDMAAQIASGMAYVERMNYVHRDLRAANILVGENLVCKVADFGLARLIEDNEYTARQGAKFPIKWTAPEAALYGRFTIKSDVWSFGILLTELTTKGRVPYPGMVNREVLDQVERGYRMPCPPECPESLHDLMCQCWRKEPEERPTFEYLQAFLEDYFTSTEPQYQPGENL

[2] = molecular target: Tyrosine-protein kinase Fyn (Homo sapiens, UniProt P06241); assay: Affinity for GST-Fyn-SH2 domain in ELISA
Chain of Tyrosine-protein kinase Fyn (P06241 whole entry, the tested form may be a part): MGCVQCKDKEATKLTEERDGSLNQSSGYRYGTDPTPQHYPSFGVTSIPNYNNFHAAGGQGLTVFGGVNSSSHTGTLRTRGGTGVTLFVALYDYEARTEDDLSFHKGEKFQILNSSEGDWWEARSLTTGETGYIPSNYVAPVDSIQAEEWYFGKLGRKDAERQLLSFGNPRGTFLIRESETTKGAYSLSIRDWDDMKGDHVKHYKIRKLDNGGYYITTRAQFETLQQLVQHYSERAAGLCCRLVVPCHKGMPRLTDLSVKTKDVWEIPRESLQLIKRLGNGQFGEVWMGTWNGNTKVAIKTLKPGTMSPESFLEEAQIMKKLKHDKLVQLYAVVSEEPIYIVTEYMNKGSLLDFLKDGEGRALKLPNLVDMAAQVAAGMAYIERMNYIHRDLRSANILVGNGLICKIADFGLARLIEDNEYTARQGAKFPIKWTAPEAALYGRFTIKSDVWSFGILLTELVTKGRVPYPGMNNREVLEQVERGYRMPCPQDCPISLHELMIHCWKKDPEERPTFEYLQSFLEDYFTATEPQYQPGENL

[3] = molecular target: Tyrosine-protein kinase Lck (Homo sapiens, UniProt P06239); assay: Affinity for GST-Lck-SH2 domain in ELISA
Chain of Tyrosine-protein kinase Lck (P06239 whole entry, the tested form may be a part): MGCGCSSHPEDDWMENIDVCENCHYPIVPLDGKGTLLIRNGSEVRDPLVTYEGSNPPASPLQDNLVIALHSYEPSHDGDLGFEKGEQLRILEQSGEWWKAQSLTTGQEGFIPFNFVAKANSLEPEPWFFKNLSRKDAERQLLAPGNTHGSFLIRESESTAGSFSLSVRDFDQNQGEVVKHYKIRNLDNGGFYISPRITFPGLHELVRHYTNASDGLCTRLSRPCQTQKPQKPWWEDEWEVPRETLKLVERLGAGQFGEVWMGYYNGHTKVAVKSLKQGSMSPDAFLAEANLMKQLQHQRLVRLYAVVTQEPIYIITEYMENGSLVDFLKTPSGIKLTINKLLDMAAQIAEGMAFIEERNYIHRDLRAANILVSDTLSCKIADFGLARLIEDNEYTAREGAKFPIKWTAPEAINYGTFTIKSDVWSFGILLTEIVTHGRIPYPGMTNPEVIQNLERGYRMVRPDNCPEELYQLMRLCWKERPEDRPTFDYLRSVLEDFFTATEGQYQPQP

`CC[C@H](C)[C@H](NC(=O)[C@H](CCC(=O)O)NC(=O)[C@H](CCC(=O)O)NC(=O)[C@H](Cc1ccc(OP(=O)(O)O)cc1)NC(=O)Cc1cc(=O)oc2cc(O)ccc12)C(=O)N[C@@H](CCC(=O)O)C(=O)O` (X1-[pY]EEIE-OH) was tested, and the IC50 [1] was 0.09 µM, the IC50 [2] was 0.1 µM and the IC50 [3] was 0.081 µM.

With Ac-YAEIE-OH the IC50 [1] was 7 µM, the IC50 [2] was 11 µM and the IC50 [3] was 3.8 µM.

Compound `CC(=O)N[C@@H](Cc1ccc(O)c(O)c1)C(=O)N[C@@H](CCC(=O)O)C(=O)N[C@@H](CCC(=O)O)C(=O)N[C@@H](CCC(=O)O)C(=O)O` (Ac-[Dopa]EEE-OH) has an IC50 [1] of 160 µM, an IC50 [2] of over 200 µM and an IC50 [3] of 120 µM.

In the case of Ac-YEEIE-OH, the IC50 [1] is reported as over 200 µM, the IC50 [2] is reported as over 200 µM and the IC50 [3] is reported as over 200 µM.

For `CC[C@H](C)[C@H](NC(=O)[C@H](CCC(=O)O)NC(=O)[C@H](CCC(=O)O)NC(=O)[C@H](Cc1ccc(O)cc1)NC(=O)/C=C/c1ccc(O)c(O)c1)C(=O)N[C@@H](CCC(=O)O)C(=O)O` (Caffeoyl-YEEIE-OH), the IC50 [1] was 54 µM, the IC50 [2] was 45 µM and the IC50 [3] was 27 µM.

In the case of `CC[C@H](C)[C@H](NC(=O)[C@H](CCC(=O)O)NC(=O)[C@H](CCC(=O)O)NC(=O)[C@H](Cc1ccc(O)c(O)c1)NC(=O)Cc1cc(=O)oc2cc(O)ccc12)C(=O)N[C@@H](CCC(=O)O)C(=O)O` (X1-[Dopa]EEIE-OH), the IC50 [1] is reported as 65 µM, the IC50 [2] is reported as 77 µM and the IC50 [3] is reported as 58 µM.

For `CC[C@H](C)[C@H](NC(=O)[C@H](CCC(=O)O)NC(=O)[C@H](CCC(=O)O)NC(=O)[C@H](Cc1ccc(OP(=O)(O)O)cc1)NC(C)=O)C(=O)N[C@@H](CCC(=O)O)C(=O)O` (Ac-[pY]EEIE-OH), the IC50 [2] was 1.1 µM and the IC50 [3] was 1.3 µM.

Work on `CC[C@H](C)[C@H](NC(=O)[C@H](CCC(=O)O)NC(=O)[C@H](CCC(=O)O)NC(=O)[C@H](Cc1ccc(OP(=O)(O)O)cc1)NC(=O)/C=C/c1ccc(O)c(O)c1)C(=O)N[C@@H](CCC(=O)O)C(=O)O` (Caffeoyl-[pY]EEIE-OH) yielded an IC50 [1] of 0.064 µM, an IC50 [2] of 0.084 µM and an IC50 [3] of 0.042 µM.

For `CC[C@H](C)[C@H](NC(=O)[C@H](CCC(=O)O)NC(=O)[C@H](CCC(=O)O)NC(=O)[C@H](Cc1ccc(O)c(O)c1)NC(=O)/C=C/c1ccc(O)c(O)c1)C(=O)N[C@@H](CCC(=O)O)C(=O)O` (Caffeoyl-[Dopa]EEIE-OH), the IC50 [1] was 55 µM, the IC50 [2] was 33 µM and the IC50 [3] was 18 µM.
